Assay results published in ChEMBL document CHEMBL3351645, “Design and synthesis of γ-butyrolactone derivatives as potential spermicidal agents” (Bioorg Med Chem Lett, 2014).
Activity calls are given as the source filed them. No cut-off for these calls is given here.

What was measured:
Spermatozoa [1] = assay: Spermicidal activity in human semen assessed as induction of spermatozoa immotility at 0.1% w/v by Sander-Cramer method; type: functional, cell-based
HeLa = assay: Cytotoxicity against human HeLa cells; type: cell-based
Spermatozoa [2] = assay: Spermicidal activity in human semen assessed as induction of spermatozoa immotility at <0.1% w/v by Sander-Cramer method; type: functional
Spermatozoa [3] = assay: Spermicidal activity in human semen assessed as induction of spermatozoa immotility by Sander-Cramer method; type: functional
Spermatozoa [4] = assay: Inhibition of free thiols level in human semen derived spermatozoa at 1% incubated for 15 mins by monobromobimane dye based fluorescence microscopy; type: functional, cell-based

| Compound | Activity (Spermatozoa [1]) | IC50 (HeLa) | MEC (Spermatozoa [2]) | MEC (Spermatozoa [3]) | inhibition (Spermatozoa [4]) |
| --- | --- | --- | --- | --- | --- |
| CCN(CC)CCC1(C(=O)/C=C/c2ccc(O)cc2)CCOC1=O (stereo unspecified) | inactive |  |  |  |  |
| CN(C)CCCC1(C(=O)/C=C/c2ccc(N(C)C)cc2)CCOC1=O.O=C(O)C(O)C(O)C(=O)O (stereo unspecified) |  | 1200 µg/mL | 0.1% | 0.5% |  |
| CC(=O)C1(CCN2CCCC2)CCOC1=O (stereo unspecified) |  |  |  | inactive |  |
| CC(=O)C1(CCCN(C)C)CCOC1=O (stereo unspecified) |  |  |  | inactive |  |
| COc1cc(/C=C/C(=O)C2(CCN3CCOCC3)CCOC2=O)ccc1O.O=C(O)C(O)C(O)C(=O)O (stereo unspecified) |  | 848 µg/mL | 0.1% | 0.5% |  |
| COc1cc(/C=C/C(=O)C2(CCN3CCCC3)CCOC2=O)ccc1O (stereo unspecified) | inactive |  |  |  |  |
| COc1cc(/C=C/C(=O)C2CCOC2=O)ccc1O (stereo unspecified) | inactive |  |  |  |  |
| CC(=O)C1(CCN2CCOCC2)CCOC1=O (stereo unspecified) |  |  |  | inactive |  |
| CCN(CC)CCC1(C(=O)/C=C/c2ccc(N(C)C)cc2)CCOC1=O (stereo unspecified) | inactive |  |  |  |  |
| CCN(CC)CCC1(C(C)=O)CCOC1=O (stereo unspecified) |  |  |  | inactive |  |
| O=C(/C=C/c1ccc(O)cc1)C1CCOC1=O (stereo unspecified) | inactive |  |  | inactive |  |
| O=C(/C=C/c1ccc(O)cc1)C1(CCN2CCCC2)CCOC1=O (stereo unspecified) | inactive |  |  |  |  |
| CN(C)CCCC1(C(=O)/C=C/c2ccc(O)cc2)CCOC1=O.O=C(O)C(O)C(O)C(=O)O (stereo unspecified) |  | 661 µg/mL | 0.5% | 0.5% |  |
| CCCCCCCCCc1ccc(OCCOCCOCCOCCOCCOCCOCCOCCOCCO)cc1 [NONOXYNOL 9] |  |  | 0.02% |  |  |
| O=C(/C=C/c1ccc(O)cc1)C1(CCN2CCOCC2)CCOC1=O.O=C(O)C(O)C(O)C(=O)O (stereo unspecified) |  | 961 µg/mL | 0.05% | 0.05% | Active |
| CN(C)c1ccc(/C=C/C(=O)C2CCOC2=O)cc1 (stereo unspecified) | inactive |  |  | inactive |  |
| COc1cc(/C=C/C(=O)C2(CCCN(C)C)CCOC2=O)ccc1O.O=C(O)C(O)C(O)C(=O)O (stereo unspecified) |  | 269 µg/mL | 0.05% | 0.05% | inactive |
| CN(C)c1ccc(/C=C/C(=O)C2(CCN3CCOCC3)CCOC2=O)cc1.O=C(O)C(O)C(O)C(=O)O (stereo unspecified) |  | 1330 µg/mL | 0.5% | 0.5% |  |
| CN(C)c1ccc(/C=C/C(=O)C2(CCN3CCCC3)CCOC2=O)cc1 (stereo unspecified) | inactive |  |  |  |  |
| CCN(CC)CCC1(C(=O)/C=C/c2ccc(O)c(OC)c2)CCOC1=O (stereo unspecified) | inactive |  |  |  |  |
